Laboratory results as given in patent US5071850A, “2,3-dihydro-3-arylalkylaminoalkyl-4H-1,3-benzoxazin-4-one derivatives, their preparation and their application as medicinal products which are useful in therapy” (Pierre Fabre Medicament, priority 1988, dated 1991).
Structures can show the parent of a compound that is named as a salt.

Columns and labels:
[1] = tested on: rats anesthetized with pentobarbital sodium; experiment: Bradycardic effect and intracardiac conduction times (ECG, arterial pressure) in pentobarbital-anesthetized rats; format: in vivo; settings: for % ABP (mean arterial blood pressure) / % HR (heart rate): % change at peak of action; for % modification of the ECG intervals: PQ (atrioventricular conduction time) / % modification of the ECG intervals: QRS (intraventricular conduction time) / % modification of the ECG intervals: QTS / % modification of the ECG intervals: TP (electrocardiac diastole): at peak of action
Procedure: b) The bradycardic effect and the analysis of the intracardiac conduction times were studied on rats anesthetized with pentobarbital sodium (40 mg/kg ip) and left in spontaneous ventilation. The electrocardiogram is recorded simultaneously in the standard leads OI, OII and OIII; the arterial blood pressure is measured on a femoral artery. The percentage changes are considered at the peak of action. The results relating to the compounds A, B, J, G and N are given in Table III, by way of non-limiting example.

Left atrium = experiment: Inotropic effect on isolated electrically stimulated left atrium; parameters: species or system guineapig; settings: Cavia porcellus, electrically stimulated at fixed rhythm, percentage change; for inhibition at 1 µg/mL: 1 ug/ml; for inhibition at 0.3 µg/mL: 0.3 ug/ml
Procedure: (§1) c) Finally, the chronotropic and inotropic activities were measured on isolated guineapig atria placed in isolated organ cells. The organs are then connected to force gauges. The right atrium, beating in a spontaneous rhythm, enables the negative chronotropic effects of the products to be assessed. As regards the left atria, these are electrically stimulated at a fixed rhythm so as to evaluate actions on the inotropic effect. The percentage changes are recorded in Table V for the compounds A, B, G and J, by way of non-limiting examples.

Solubility in water = format: physicochemical
Right atrium = experiment: Chronotropic effect on isolated spontaneously beating right atrium; parameters: species or system guineapig; settings: Cavia porcellus, spontaneous rhythm, percentage change; for inhibition at 1 µg/mL: 1 ug/ml; for inhibition at 0.3 µg/mL: 0.3 ug/ml
Procedure: as §1

anesthetized rats = experiment: Coronary ligation in anesthetized rats (antiarrhythmic activity and heart rate); format: in vivo; settings: for % fall in heart rate after 1 min: 1 min after injection; for % fall in heart rate after 1 min / % fall in heart rate after 10 min: % change relative to controls; for % fall in heart rate after 10 min: 10 min after injection; for % fall in arrhythmias: coronary ligation
From the text: a) The technique of coronary ligation in anesthetized rats according to Clark et al. (J. Pharm. […] SC denotes the percentage reduction in disorders of rhythm induced by these compounds, n denotes the number of animals.

[2] = Acute intravenous toxicity in mice (LD50, Miller and Tainter); settings: mouse, in vivo, mice weighing 20 to 22 g
Procedure: The chemical compounds described above were subjected to toxicity controls. This study was carried out on conventional mice weighing 20 to 22 g. The watersoluble salts of the compounds of general formula I were administered intravenously. The 50% lethal dose (LD50) is calculated according to the method of Miller and Tainter (Proc. Soc. Exp. Biol. Med. 1944, 57, 261).

conscious dogs = experiment: Bradycardic effect in conscious dogs with hydralazine-raised heart rate (Kobinger and Lillie); format: in vivo; settings: for Heart rate after / Heart rate before / Heart rate Change: 1 mg/kg iv; for Heart rate after: after test product; for Heart rate after / Heart rate Change: hydralazine tachycardia; for Heart rate before: before test product, after hydralazine 1 mg/kg iv
Procedure: When the latter has stabilized, the test products are injected intravenously.

COc1ccc(CCN(C)CCCN2COc3cc(C)ccc3C2=O)cc1OC.Cl [Compound G, 2,3-Dihydro-3-{3-[(methyl)(3,4-dimethoxyphenethyl)amino]propyl}-7-methyl-4H-1,3-benzoxazin-4-one hydrochloride]
% ABP (mean arterial blood pressure) ([1]; 1 mg/kg iv): -10%
% HR (heart rate) ([1]; 1 mg/kg iv): -18%
% modification of the ECG intervals: PQ (atrioventricular conduction time) ([1]; 1 mg/kg iv): +10%
% modification of the ECG intervals: QRS (intraventricular conduction time) ([1]; 1 mg/kg iv): +5%
% modification of the ECG intervals: QTS ([1]; 1 mg/kg iv): +12%
% modification of the ECG intervals: TP (electrocardiac diastole) ([1]; 1 mg/kg iv): +32%
inhibition at 1 µg/mL (Left atrium): 4%
solubility (Solubility in water): 90 mg/mL
inhibition at 1 µg/mL (Right atrium): 35%
% fall in heart rate after 1 min (anesthetized rats; 2.5 mg/kg iv): -39%
% fall in heart rate after 10 min (anesthetized rats; 2.5 mg/kg iv): -16%
% fall in arrhythmias (anesthetized rats; 2.5 mg/kg iv): -1%

COc1cc2c(cc1OC)C(=O)N(CCCN(C)CCc1ccccc1)CO2.Cl [Compound O, 2,3-Dihydro-6,7-dimethoxy-3-{3-[(methyl)(phenethyl)amino]propyl}-4H-1,3-benzoxazin-4-one hydrochloride]
solubility (Solubility in water): > 100 mg/mL

COc1ccc(CCN(C)CCCN2C(=O)c3cccc(OC)c3OC2C)cc1OC.Cl (centres unmarked) [Compound L, 2,3-Dihydro-3-{3-[(methyl)(3,4-dimethoxyphenethyl)amino]propyl}-8-methoxy-2-methyl-4H-1,3-benzoxazin-4-one hydrochloride]
solubility (Solubility in water): 100 mg/mL

COc1ccc2c(c1)C(=O)N(CCCN(C)CCc1ccc(OC)c(OC)c1)CO2.Cl [Compound D, 2,3-Dihydro-3-{3-[(methyl)(3,4-dimethoxyphenethyl)amino]propyl}-6-methoxy-4H-1,3-benzoxazin-4-one hydrochloride]
solubility (Solubility in water): > 100 mg/mL

COc1ccc2c(c1)OCN(CCCN(C)CCc1ccc(OC)c(OC)c1)C2=O.Cl [Compound E, 2,3-Dihydro-3-{3-[(methyl)(3,4-dimethoxyphenethyl)amino]propyl}-7-methoxy-4H-1,3-benzoxazin-4-one hydrochloride]
solubility (Solubility in water): 100 mg/mL

COc1ccc(CCN(C)CCCN2COc3cc(OC)c(OC)cc3C2=O)cc1OC.Cl [Compound B, 2,3-Dihydro-6,7-dimethoxy-3-{3-[(methyl)(3,4-dimethoxyphenethyl)amino]propyl}-4H-1,3-benzoxazin-4-one hydrochloride]
% ABP (mean arterial blood pressure) ([1]; 1 mg/kg iv): -16%
% HR (heart rate) ([1]; 1 mg/kg iv): -32%
% modification of the ECG intervals: PQ (atrioventricular conduction time) ([1]; 1 mg/kg iv): +9%
% modification of the ECG intervals: QRS (intraventricular conduction time) ([1]; 1 mg/kg iv): +12%
% modification of the ECG intervals: QTS ([1]; 1 mg/kg iv): +38%
% modification of the ECG intervals: TP (electrocardiac diastole) ([1]; 1 mg/kg iv): +95%
% ABP (mean arterial blood pressure) ([1]; 3 mg/kg iv): -34%
% HR (heart rate) ([1]; 3 mg/kg iv): -55%
% modification of the ECG intervals: PQ (atrioventricular conduction time) ([1]; 3 mg/kg iv): +17%
% modification of the ECG intervals: QRS (intraventricular conduction time) ([1]; 3 mg/kg iv): +24%
% modification of the ECG intervals: QTS ([1]; 3 mg/kg iv): +75%
% modification of the ECG intervals: TP (electrocardiac diastole) ([1]; 3 mg/kg iv): +211%
inhibition at 0.3 µg/mL (Left atrium): 9%
inhibition at 1 µg/mL (Left atrium): 6.5%
solubility (Solubility in water): > 100 mg/mL
inhibition at 0.3 µg/mL (Right atrium): 27%
inhibition at 1 µg/mL (Right atrium): 64%
LD50 [2]: 48 mg/kg
% fall in heart rate after 1 min (anesthetized rats; 2.5 mg/kg iv): -50%
% fall in heart rate after 10 min (anesthetized rats; 2.5 mg/kg iv): -28%
% fall in arrhythmias (anesthetized rats; 2.5 mg/kg iv): -38%
% fall in heart rate after 1 min (anesthetized rats; 10 mg/kg iv): -66%
% fall in heart rate after 10 min (anesthetized rats; 10 mg/kg iv): -60%
% fall in arrhythmias (anesthetized rats; 10 mg/kg iv): -80%
Heart rate after (conscious dogs): 105 bts/min
Heart rate before (conscious dogs): 175 bts/min
Heart rate Change (conscious dogs): -40%

COc1ccc(CCN(CCCN2COc3cc(OC)c(OC)cc3C2=O)Cc2ccccc2)cc1OC [Example 17, 2,3-Dihydro-6,7-dimethoxy-3-{3-[(benzyl)(3,4-dimethoxyphenethyl)amino]propyl}-4H-1,3-benzoxazin-4-one hydrochloride monohydrate]
solubility (Solubility in water): 60 mg/mL

COc1ccc(CCN(C)CCCN2COc3ccccc3C2=O)cc1OC.Cl [Compound A, 2,3-Dihydro-3-{3-[(methyl)(3,4-dimethoxyphenethyl)amino]propyl}-4H-1,3-benzoxazin-4-one hydrochloride]
% ABP (mean arterial blood pressure) ([1]; 3 mg/kg iv): -33%
% HR (heart rate) ([1]; 3 mg/kg iv): -31%
% modification of the ECG intervals: PQ (atrioventricular conduction time) ([1]; 3 mg/kg iv): +26%
% modification of the ECG intervals: QRS (intraventricular conduction time) ([1]; 3 mg/kg iv): +11%
% modification of the ECG intervals: QTS ([1]; 3 mg/kg iv): +29%
% modification of the ECG intervals: TP (electrocardiac diastole) ([1]; 3 mg/kg iv): +76%
inhibition at 0.3 µg/mL (Left atrium): 16%
inhibition at 1 µg/mL (Left atrium): 15%
solubility (Solubility in water): 100 mg/mL
inhibition at 0.3 µg/mL (Right atrium): 15%
inhibition at 1 µg/mL (Right atrium): 19%
LD50 [2]: 27 mg/kg
% fall in heart rate after 1 min (anesthetized rats; 2.5 mg/kg iv): -30%
% fall in heart rate after 10 min (anesthetized rats; 2.5 mg/kg iv): -11%
% fall in arrhythmias (anesthetized rats; 2.5 mg/kg iv): -9%
% fall in heart rate after 1 min (anesthetized rats; 10 mg/kg iv): -50%
% fall in heart rate after 10 min (anesthetized rats; 10 mg/kg iv): -19%
% fall in arrhythmias (anesthetized rats; 10 mg/kg iv): -76%
Heart rate after (conscious dogs): 140 bts/min
Heart rate before (conscious dogs): 215 bts/min
Heart rate Change (conscious dogs): -35%

COc1ccc(CCN(C)CCCN2COc3ccc(C)cc3C2=O)cc1OC.Cl [Compound F, 2,3-Dihydro-3-{3-[(methyl)(3,4-dimethoxyphenethyl)amino]propyl}-6-methyl-4H-1,3-benzoxazin-4-one hydrochloride]
solubility (Solubility in water): ~100 mg/mL

COc1ccc(CCN(C)CCCN2COc3cc(Cl)ccc3C2=O)cc1OC.Cl [Compound J, 7-Chloro-2,3-dihydro-3-{3-[(methyl)(3,4-dimethoxyphenethyl)amino]propyl}-4H-1,3-benzoxazin-4-one hydrochloride]
% ABP (mean arterial blood pressure) ([1]; 1 mg/kg iv): -13%
% HR (heart rate) ([1]; 1 mg/kg iv): -16%
% modification of the ECG intervals: PQ (atrioventricular conduction time) ([1]; 1 mg/kg iv): +9%
% modification of the ECG intervals: QRS (intraventricular conduction time) ([1]; 1 mg/kg iv): +12%
% modification of the ECG intervals: QTS ([1]; 1 mg/kg iv): +12%
% modification of the ECG intervals: TP (electrocardiac diastole) ([1]; 1 mg/kg iv): +29%
inhibition at 1 µg/mL (Left atrium): 11%
solubility (Solubility in water): 120 mg/mL
inhibition at 1 µg/mL (Right atrium): 29%
% fall in heart rate after 1 min (anesthetized rats; 2.5 mg/kg iv): -32%
% fall in heart rate after 10 min (anesthetized rats; 2.5 mg/kg iv): -12%
% fall in arrhythmias (anesthetized rats; 2.5 mg/kg iv): -37%

NNc1nncc2ccccc12 [hydralazine, reference compound]
heart rate effect of hydralazine (conscious dogs; hydralazine 1 mg/kg iv, conscious dogs): causes tachycardia

COc1ccc(CCN(C)CCCN2COc3c(OC)cccc3C2=O)cc1OC.Cl [Compound C, 2,3-Dihydro-3-{3-[(methyl)(3,4-dimethoxyphenethyl)amino]propyl}-8-methoxy-4H-1,3-benzoxazin-4-one hydrochloride]
solubility (Solubility in water): ~100 mg/mL

COc1ccc(CCNCCN2COc3cc(OC)c(OC)cc3C2=O)cc1OC.Cl [Compound R, 2,3-Dihydro-6,7-dimethoxy-3-[2-(3,4-dimethoxyphenethylamino)ethyl]-4H-1,3-benzoxazin-4-one hydrochloride]
solubility (Solubility in water): 120 mg/mL

CCCCCCCC1Oc2cc(OC)c(OC)cc2C(=O)N1CCCN(C)CCc1ccc(OC)c(OC)c1 (centres unmarked) [Compound N, hydrochloride]
% ABP (mean arterial blood pressure) ([1]; 1 mg/kg iv): -9%
% HR (heart rate) ([1]; 1 mg/kg iv): -12%
% modification of the ECG intervals: PQ (atrioventricular conduction time) ([1]; 1 mg/kg iv): +7%
% modification of the ECG intervals: QRS (intraventricular conduction time) ([1]; 1 mg/kg iv): +12%
% modification of the ECG intervals: QTS ([1]; 1 mg/kg iv): +10%
% modification of the ECG intervals: TP (electrocardiac diastole) ([1]; 1 mg/kg iv): +21%
solubility (Solubility in water): 100 mg/mL
% fall in heart rate after 1 min (anesthetized rats; 2.5 mg/kg iv): -4%
% fall in heart rate after 10 min (anesthetized rats; 2.5 mg/kg iv): -6%
% fall in arrhythmias (anesthetized rats; 2.5 mg/kg iv): -72%

COc1ccc(CCN(C)CCCN2COc3ccc(Br)cc3C2=O)cc1OC.Cl [Compound K, 6-Bromo-2,3-dihydro-3-{3-[(methyl)(3,4-dimethoxyphenethyl)amino]propyl}-4H-1,3-benzoxazin-4-one hydrochloride]
solubility (Solubility in water): 90 mg/mL

COc1ccc(CCNCCCN2COc3cc(OC)c(OC)cc3C2=O)cc1OC.Cl [Compound P, 2,3-Dihydro-6,7-dimethoxy-3-[3-(3,4-dimethoxyphenethylamino)propyl]-4H-1,3-benzoxazin-4-one hydrochloride]
solubility (Solubility in water): > 100 mg/mL

COc1ccc(CCN(C)CCCN2C(=O)c3cc(OC)c(OC)cc3OC2C)cc1OC.Cl (centres unmarked) [Compound M, 2,3-Dihydro-6,7-dimethoxy-3-{3-[(methyl)(3,4-dimethoxyphenethyl)amino]propyl}-2-methyl-4H-1,3-benzoxazin-4-one hydrochloride]
solubility (Solubility in water): 100 mg/mL

COc1ccc(CCN(C)CCCN2COc3c(C)cccc3C2=O)cc1OC.Cl [Compound H, 2,3-Dihydro-3-{3-[(methyl)(3,4-dimethoxyphenethyl)amino]propyl}-8-methyl-4H-1,3-benzoxazin-4-one hydrochloride]
solubility (Solubility in water): 80 mg/mL
